Values joined by “and” are separate entries in the source; they are usually repeats but may differ in a detail not shown here. Equal values may be shown once.

This assay deals with T1, pure CA11 enzyme from human erythrocyte (Homo sapiens, UniProt P00918).
T1 construct: pure CA11 enzyme from human erythrocyte; from tissue; host or cells: human erythrocyte
Briefly: Carbonic anhydrase activity assay, micromethod of Maren. The assay is classed as biochemical. The conditions noted are these: concentration that lowers the enzyme activity to half; 0°-4° C.; phenol red endpoint, pH 9.9 to 6.8. The method, then: Carbonic anhydrase activity was assayed according to the micromethod of Maren (J. Pharmacol. Exptl. Therap., 130, 26-29, 1960). All solutions and reagents were maintained at 0°-4° C. The final assay mixture contained 16 mM phenol red, added enzyme and 62.5 mM sodium carbonate/bicarbonate. Its volume was kept constant at 0.8 mL. The time required for the added enzyme to lower the pH of CO2 -saturated carbonate/bicarbonate buffer from pH 9.9 to 6.8 was measured using the color change of phenol red as endpoint. T1 is the time recorded for the reaction containing no enzyme. T2 is the time recorded for the reaction containing pure CA11 enzyme from human erythrocyte, or an unknown amount in a sample. Enzyme activities (unit) were calculated using the formula:
Unit/ug=(T1 -T2)/(T2 *ug protein used in assay)
IC50 of a carbonic anhydrase inhibitor is the concentration that lowers the enzyme activity to half.
With `CC(C)(C)OC(=O)c1ccc(C(=O)c2cc(S(N)(=O)=O)cs2)cc1` [5-(4-t-butoxycarbonylbenzoyl)-3-thiophene sulfonamide], 0.003 µM corresponded to half-maximal inhibition (IC50).
Regarding `CCOC(=O)c1ccc(C(=O)c2cc(S(N)(=O)=O)cs2)cc1` [5-(4-ethoxycarbonylbenzoyl)-3-thiophene sulfonamide], the 50% inhibitory concentration (IC50) – broadly, the midpoint of a concentration-inhibition curve – stood at 0.006 µM.
As for `COc1ccc(C(O)c2cc(S(N)(=O)=O)cs2)cc1` (stereo not shown) [5-(4-methoxybenzhydrol)-3-thiophene sulfonamide], half-maximal inhibition (IC50) was put at 0.016 µM.
For the compound `COC(c1ccc(CO)cc1)c1cc(S(N)(=O)=O)cs1` (stereo not shown) [5-[(methoxy)(4-hydroxymethylphenyl)]methyl-3-thiophene sulfonamide], the 50% inhibitory concentration (IC50) amounted to 0.013 µM.
In turn, `NS(=O)(=O)c1csc(C(=NO)c2ccccc2)c1` [5-benzoyl-3-thiophene sulfonamide, oxime] showed an IC50 of 0.053 µM.
Compound `NS(=O)(=O)c1csc(C(=O)c2ccccc2F)c1` [5-(2-fluorobenzoyl)-3-thiophene sulfonamide] showed an IC50 of 0.018 µM.
Compound `CC(=O)OCc1ccc(C(=O)c2cc(S(N)(=O)=O)cs2)cc1` [5-(4-acetoxymethylbenzoyl)-3-thiophene sulfonamide] showed an IC50 of 0.006 µM.
`CCCCCCC(=O)c1cc(S(N)(=O)=O)cs1` [5-(1-heptanoyl)-3-thiophene sulfonamide] displayed a 50% inhibitory concentration (IC50) of 0.014 µM. This IC50 is about 2.3-fold higher than that of the compound before.
The result for `CCCCCCC(O)c1cc(S(N)(=O)=O)cs1` (stereo not shown) [5-(1-hydroxy-n-heptyl)-3-thiophene sulfonamide] reads 0.031 µM; that for `NS(=O)(=O)c1csc(C(O)c2ccc(C=O)cc2)c1` (stereo not shown) [5-(4-formylbenzhydrol)-3-thiophene sulfonamide], 0.018 µM.
The result for `CCC(=O)Oc1ccc(C(=O)c2cc(S(N)(=O)=O)cs2)cc1` [5-(4-propionoxybenzoyl)-3-thiophene sulfonamide] reads 0.009 µM; that for `NS(=O)(=O)c1csc(C(=O)c2cccc(C=O)c2)c1` [5-(3-formylbenzoyl)-3-thiophene sulfonamide], 0.0073 µM.
With `NS(=O)(=O)c1csc(C(=O)c2cc(F)cc(F)c2)c1` [5-(3.5-difluorobenzoyl)-3-thiophene sulfonamide], the concentration for half-maximal inhibition (IC50) came out at 0.015 µM. This IC50 lies about 2.1-fold higher than the previous one.
As for `NS(=O)(=O)c1csc(C(=O)c2cccc(OC(=O)c3ccccc3)c2)c1`, the IC50 worked out at 0.0053 µM. This IC50 lies about 2.8-fold lower than the previous one.
The result for `NS(=O)(=O)c1csc(C(=O)c2ccccc2)c1` [5-benzoyl-3-thiophene sulfonamide] reads 0.013 µM; that for `NS(=O)(=O)c1csc(C(O)c2ccccc2)c1` (stereo not shown) [5-benzhydrol-3-thiophene sulfonamide, 5-(benzhydrol)-3-thiophene sulfonamide], 0.074 µM; that for `CN(C)Cc1cc(C(=O)c2cc(S(N)(=O)=O)cs2)cc(CN(C)C)c1O` [5-(4-hydroxy-3,5-(bis-N,N-dimethylaminomethyl)benzoyl)-3-thiophene sulfonamide], 0.155 µM.
On to `NS(=O)(=O)c1csc(C(=O)c2cccc(C(F)(F)F)c2)c1` [5-(3-trifluoromethylbenzoyl)-3-thiophene sulfonamide], for which the IC50 was determined as 0.0083 µM.
As to `COc1ccc(C(=NO)c2cc(S(N)(=O)=O)cs2)cc1` [5-(4-methoxybenzoyl)-3-thiophene sulfonamide, oxime], the IC50 is 0.031 µM.
`NS(=O)(=O)c1csc(C(=O)c2cccc(O)c2)c1` [5-(3-hydroxybenzoyl)-3-thiophene sulfonamide] gave a half-maximal inhibitory concentration (IC50) of 0.0067 µM. This IC50 is about 4.6-fold lower than that of the compound before.
For the compound `CCCCc1ccc(C(=O)c2cc(S(N)(=O)=O)cs2)cc1` [5-(4-butylbenzoyl)-3-thiophene sulfonamide], half-maximal inhibition (IC50) required 0.0087 µM.
With `NS(=O)(=O)c1csc(C(O)c2ccc(CO)cc2)c1` (stereo not shown) [5-(4-hydroxymethylbenzhydrol)-3-thiophene sulfonamide], the midpoint of inhibition, the IC50, lay at 0.041 µM.
The result for `NS(=O)(=O)c1csc(C(O)c2ccccn2)c1` (stereo not shown) [5-[(hydroxy)(pyridyl)methyl]-3-thiophene sulfonamide] reads 0.24 µM; that for `CN(C)Cc1cc(C(=O)c2cc(S(N)(=O)=O)cs2)ccc1O` [5-(4-hydroxy-3-(N,N-dimethylaminomethyl)benzoyl)-3-thiophene sulfonamide], 0.03 µM.
`NS(=O)(=O)c1csc(C(=O)c2cccc(F)c2)c1` [5-(3-fluorobenzoyl)-3-thiophene sulfonamide] came in with an IC50 of 0.012 µM. This IC50 is about 2.5-fold lower than that of the compound before.
As to `NS(=O)(=O)c1csc(C(=O)c2cccc(C(=O)O)c2)c1` [5-(3-carboxylbenzoyl)-3-thiophene sulfonamide], the IC50 is 0.011 µM and 0.014 µM.
Turning to `CCCCC(O)c1cc(S(N)(=O)=O)cs1` (stereo not shown) [5-(1-hydroxy-n-pentyl)-3-thiophene sulfonamide], half-maximal inhibition (IC50) was put at 0.032 µM. This counts as double-digit nanomolar.
Take `NS(=O)(=O)c1csc(C(O)c2cccc(O)c2)c1` (stereo not shown) [5-(3-hydroxybenzhydrol)-3-thiophene sulfonamide]: the IC50 came to 0.037 µM.
With `NS(=O)(=O)c1csc(C(=O)c2ccc(C=O)cc2)c1` [5-(4-formylbenzoyl)-3-thiophene sulfonamide], the 50% inhibitory concentration (IC50) was 0.013 µM.
Take `COC(c1cccc(C(F)(F)F)c1)c1cc(S(N)(=O)=O)cs1` (stereo not shown) [5-[(methoxy)(3-trifluoromethylphenyl)methyl]-3-thiophene sulfonamide]: half-maximal inhibition (IC50) required 0.018 µM.
The result for `NS(=O)(=O)c1csc(C(=O)c2ccc(C(=O)O)cc2)c1` [5-(4-carboxybenzoyl)-3-thiophene sulfonamide] reads 0.0034 µM and 0.005 µM; that for `COc1ccc(C(=O)c2cc(S(N)(=O)=O)cs2)cc1` [5-(4-methoxybenzoyl)-3-thiophene sulfonamide], 0.026 µM.
In the case of `NS(=O)(=O)c1csc(C(=O)c2ccccn2)c1` [[5-(3-sulfonamidothienyl)][2-pyridyl] ketone], the concentration for half-maximal inhibition (IC50) worked out at 0.019 µM.
Compound `CCCCC(=O)c1cc(S(N)(=O)=O)cs1` [5-(1-pentanoyl)-3-thiophene sulfonamide] displayed a half-inhibitory concentration (IC50) of 0.027 µM.
As to `NS(=O)(=O)c1csc(C(O)c2ccc(O)cc2)c1` (stereo not shown) [5-(4-hydroxybenzhydrol)3-thiophene sulfonamide], it took 0.026 µM to reach half-maximal inhibition (IC50). This IC50 and that of the compound before are within 1.5-fold of each other.
The result for `NS(=O)(=O)c1csc(C(=O)c2ccc(CO)cc2)c1` [5-(4-hydroxymethylbenzoyl)-3-thiophene sulfonamide] reads 0.017 µM; that for `CC(=O)OC(c1ccccc1)c1cc(S(N)(=O)=O)cs1` (stereo not shown) [5-[(phenyl)(acetoxy)methyl]-3-thiophene sulfonamide], 0.09 µM.
For `NS(=O)(=O)c1csc(C(=O)c2ccc(O)cc2)c1` [5-(4-hydroxybenzoyl)-3-thiophene sulfonamide], half-maximal inhibition (IC50) required 0.017 µM.
For the compound `CC(=O)Oc1ccc(C(=O)c2cc(S(N)(=O)=O)cs2)cc1` [5-(4-acetoxybenzoyl)-3-thiophene sulfonamide], the half-inhibitory concentration (IC50) is 0.012 µM and 0.0036 µM.
For `CCCCC(=NO)c1cc(S(N)(=O)=O)cs1` [5-(1-pentanoyl)-3-thiophene sulfonamide, oxime], the IC50 was determined as 0.022 µM.
